Measured values reported in ChEMBL document CHEMBL1201862, “PubChem BioAssay data set” (2004).
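Values below derive from 48-hour exposures of cells grown in 96-well plates, with endpoints linearly interpolated between the two concentrations bracketing the appropriate inhibition level. GI50 marks 50% less growth.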 Active and inactive are the calls of the source. No stated cut-off is given here; in the data, active = GI50 up to about 1.1 µM and inactive = higher.

What was measured:
Experiment in all cases: growth of human tumour cells (NCI), 48 h
OVCAR-4 = tested on: OVCAR-4
HCT-15 = tested on: HCT-15
M14 = tested on: M14
SF-295 = tested on: SF-295
OVCAR-3 = tested on: OVCAR-3
NCI-H23 = tested on: NCI-H23
ACHN = tested on: ACHN
UACC-62 = tested on: UACC-62
HOP-62 = tested on: HOP-62
SNB-75 = tested on: SNB-75
CAKI-1 = tested on: CAKI-1
OVCAR-8 = tested on: OVCAR-8
SW-620 = tested on: SW-620
EKVX = tested on: EKVX
RXF 393 = tested on: RXF 393
HOP-92 = tested on: HOP-92

| SMILES | GI50 (OVCAR-4) | GI50 (HCT-15) [µM] | GI50 (M14) | GI50 (SF-295) | GI50 (OVCAR-3) | GI50 (NCI-H23) | GI50 (ACHN) | GI50 (UACC-62) | GI50 (HOP-62) | GI50 (SNB-75) | GI50 (CAKI-1) | GI50 (OVCAR-8) | GI50 (SW-620) | GI50 (EKVX) | GI50 (RXF 393) | GI50 (HOP-92) |
| --- | --- | --- | --- | --- | --- | --- | --- | --- | --- | --- | --- | --- | --- | --- | --- | --- |
| c1ccc(C(c2ccccc2)c2ccncc2)cc1 | > 100 µM (inactive) | > 100 | > 100 µM (inactive) | > 100 µM (inactive) | > 100 µM (inactive) | > 100 µM (inactive) | > 100 µM (inactive) | > 100 µM (inactive) | > 100 µM (inactive) | 18 µM (inactive) | > 100 µM (inactive) | > 100 µM (inactive) | > 100 µM (inactive) | > 100 µM (inactive) | – | – |
| OC1(C(Sc2ccccc2)Sc2ccccc2)CCCCCC1 | 6.19 µM (inactive) | 24.4 | 18.7 µM (inactive) | 26.8 µM (inactive) | 20.9 µM (inactive) | 35.8 µM (inactive) | 26 µM (inactive) | 11.5 µM (inactive) | 21.9 µM (inactive) | 33.4 µM (inactive) | 12.2 µM (inactive) | 38.8 µM (inactive) | 26.2 µM (inactive) | 21.2 µM (inactive) | > 10 µM (inactive) | 28.6 µM (inactive) |
| Cc1cc(C)nc(NS(=O)(=O)c2ccc(Nc3c4ccccc4nc4c(C(=O)Nc5ccc(S(N)(=O)=O)cc5)cccc34)cc2)n1 | 85.5 µM (inactive) | 47.1 | 71.6 µM (inactive) | > 100 µM (inactive) | 66.5 µM (inactive) | 68.5 µM (inactive) | > 100 µM (inactive) | 66.1 µM (inactive) | > 100 µM (inactive) | 25.8 µM (inactive) | > 100 µM (inactive) | > 100 µM (inactive) | > 100 µM (inactive) | 35.1 µM (inactive) | 38 µM (inactive) | 30.9 µM (inactive) |
| Cc1ccccc1NC(=O)C(=O)C(C(=O)c1ccccc1F)C1OC(=O)c2ccccc21 (stereo unspecified) | 18.4 µM (inactive) | 24.5 | 16.6 µM (inactive) | – | 24.6 µM (inactive) | 10.3 µM (inactive) | 43.7 µM (inactive) | – | 17.3 µM (inactive) | 8.39 µM (inactive) | 21.1 µM (inactive) | > 10 µM (inactive) | 34.9 µM (inactive) | 96.6 µM (inactive) | 8.53 µM (inactive) | 33.3 µM (inactive) |
| CC(C)(C)c1ccc(OCCOCCOc2ccc(C(C)(C)C)cc2S(=O)(=O)Nc2ccc([N+](=O)[O-])cc2)c(S(=O)(=O)Nc2ccc([N+](=O)[O-])cc2)c1 | 33.7 µM (inactive) | 7.69 | 8.28 µM (inactive) | 8.47 µM (inactive) | 7.43 µM (inactive) | 12.7 µM (inactive) | 7.13 µM (inactive) | 6.21 µM (inactive) | 81.7 µM (inactive) | 56.6 µM (inactive) | 9.31 µM (inactive) | 9.95 µM (inactive) | 61.8 µM (inactive) | 62.5 µM (inactive) | 19.2 µM (inactive) | 4.07 µM (inactive) |
| CC(=O)OC1CCC2C(=CCC3C2(C)C(=O)CC2(C)C(C4(C)OC(C(C)C)=CC4=O)C(O)CC32C)C1(C)C (stereo unspecified) | – | 30.2 | 23.3 µM (inactive) | – | > 10 µM (inactive) | 63.2 µM (inactive) | 40.7 µM (inactive) | 19.1 µM (inactive) | > 100 µM (inactive) | 28.4 µM (inactive) | 45 µM (inactive) | 43.7 µM (inactive) | 41 µM (inactive) | 57.3 µM (inactive) | – | 41.3 µM (inactive) |
| CC(O)C(NC(=O)c1ccccc1)C(=O)N(Cc1ccccc1)Cc1ccccc1 (stereo unspecified) | > 100 µM (inactive) | > 100 | > 100 µM (inactive) | 94.4 µM (inactive) | > 100 µM (inactive) | > 100 µM (inactive) | > 100 µM (inactive) | > 100 µM (inactive) | > 100 µM (inactive) | 47.5 µM (inactive) | 18.2 µM (inactive) | > 100 µM (inactive) | > 100 µM (inactive) | > 100 µM (inactive) | – | 75.9 µM (inactive) |
| O=C(Nc1ccccc1[N+](=O)[O-])C(=O)C(C(=O)c1ccccc1-c1ccccc1)C1OC(=O)c2ccccc21 (stereo unspecified) | 24.1 µM (inactive) | 15.9 | 15.5 µM (inactive) | 16.6 µM (inactive) | 14 µM (inactive) | 17.9 µM (inactive) | 30.8 µM (inactive) | 16 µM (inactive) | 17.5 µM (inactive) | 16.9 µM (inactive) | 35.6 µM (inactive) | 14.8 µM (inactive) | 18.5 µM (inactive) | 20.2 µM (inactive) | 12.1 µM (inactive) | – |
| Cc1ccc(Sc2ccccc2N)cc1 | 46.9 µM (inactive) | 37.8 | 32.7 µM (inactive) | 78.2 µM (inactive) | 44.7 µM (inactive) | 26.7 µM (inactive) | 37.7 µM (inactive) | 53.2 µM (inactive) | 6.53 µM (inactive) | 44.8 µM (inactive) | 21.6 µM (inactive) | 52.2 µM (inactive) | 49 µM (inactive) | 54.6 µM (inactive) | 18.7 µM (inactive) | 22.7 µM (inactive) |
| Oc1cc2c(cc1O)-c1[nH]ncc1CC2 | – | 54.1 | 72.4 µM (inactive) | 49.1 µM (inactive) | – | 35.4 µM (inactive) | 21.6 µM (inactive) | 27.8 µM (inactive) | 55.5 µM (inactive) | 16.6 µM (inactive) | 33.6 µM (inactive) | 37.9 µM (inactive) | 35.4 µM (inactive) | 10.2 µM (inactive) | – | 14.4 µM (inactive) |
| CCOC(=O)NC/C=C/CO | > 100 µM (inactive) | > 100 | > 100 µM (inactive) | – | – | – | > 100 µM (inactive) | > 100 µM (inactive) | > 100 µM (inactive) | > 100 µM (inactive) | > 100 µM (inactive) | > 100 µM (inactive) | > 100 µM (inactive) | – | > 100 µM (inactive) | – |
| O=C(Nc1nc2ncn(CCI)c2c(=O)[nH]1)c1ccccc1 | > 100 µM (inactive) | 98.6 | > 100 µM (inactive) | 34 µM (inactive) | 52.8 µM (inactive) | > 100 µM (inactive) | > 75 µM (inactive) | 53.8 µM (inactive) | 30.1 µM (inactive) | 20.5 µM (inactive) | > 100 µM (inactive) | 31.2 µM (inactive) | > 100 µM (inactive) | > 80.4 µM (inactive) | 26.9 µM (inactive) | 27.9 µM (inactive) |
| Cc1cc2occ(-c3ccc(Cl)cc3)c2c(=O)o1 | > 100 µM (inactive) | > 100 | 88.1 µM (inactive) | > 100 µM (inactive) | > 100 µM (inactive) | > 100 µM (inactive) | > 100 µM (inactive) | > 100 µM (inactive) | > 100 µM (inactive) | 55.7 µM (inactive) | 98.6 µM (inactive) | > 100 µM (inactive) | > 100 µM (inactive) | > 100 µM (inactive) | > 100 µM (inactive) | > 100 µM (inactive) |
| CC(Oc1ccc(OCC2CCCCC2)cc1)C(=O)O (stereo unspecified) | > 100 µM (inactive) | > 100 | > 100 µM (inactive) | > 100 µM (inactive) | > 100 µM (inactive) | > 100 µM (inactive) | > 100 µM (inactive) | > 100 µM (inactive) | – | > 100 µM (inactive) | – | > 100 µM (inactive) | > 100 µM (inactive) | – | – | – |
| CCc1cccc(C(C)C)c1NC(=O)CCl | – | > 100 | 46.3 µM (inactive) | > 100 µM (inactive) | > 100 µM (inactive) | > 100 µM (inactive) | 90.2 µM (inactive) | 45.1 µM (inactive) | – | 37.5 µM (inactive) | > 100 µM (inactive) | – | > 100 µM (inactive) | > 100 µM (inactive) | – | > 100 µM (inactive) |
| N#CC(C(=O)C(=O)Nc1c(Cl)cccc1Cl)c1ccccc1 (stereo unspecified) | > 10 µM (inactive) | > 10 | > 10 µM (inactive) | 0.302 µM (active) | > 10 µM (inactive) | > 10 µM (inactive) | > 10 µM (inactive) | > 10 µM (inactive) | > 10 µM (inactive) | > 10 µM (inactive) | > 10 µM (inactive) | > 100 µM (inactive) | > 10 µM (inactive) | > 10 µM (inactive) | > 10 µM (inactive) | > 10 µM (inactive) |
| COc1ccccc1/C=C(\NC(=O)c1ccccc1)c1nc2ccccc2[nH]1 | 35 µM (inactive) | > 100 | 39.8 µM (inactive) | – | 44.5 µM (inactive) | 33.2 µM (inactive) | 36.6 µM (inactive) | 45 µM (inactive) | – | 31.5 µM (inactive) | 87.3 µM (inactive) | 38 µM (inactive) | 47 µM (inactive) | 34.7 µM (inactive) | 76.6 µM (inactive) | 28.9 µM (inactive) |
| CCN(CCCl)CCCNc1c2ccccc2nc2ccc(OC)cc12 | 0.682 µM (active) | 0.257 | 0.522 µM (active) | 0.115 µM (active) | 1.1 µM (active) | 0.12 µM (active) | 0.149 µM (active) | 0.118 µM (active) | 0.605 µM (active) | 0.635 µM (active) | 0.0959 µM (active) | 0.0857 µM (active) | 0.0371 µM (active) | 1.02 µM (active) | 0.215 µM (active) | 0.133 µM (active) |
| COc1cc(/C=C/c2ccncc2)cc(OC)c1OC | 76.9 µM (inactive) | 49.4 | > 100 µM (inactive) | > 100 µM (inactive) | 94.2 µM (inactive) | > 100 µM (inactive) | > 100 µM (inactive) | 67.1 µM (inactive) | 53.6 µM (inactive) | 39.2 µM (inactive) | 49 µM (inactive) | > 100 µM (inactive) | > 100 µM (inactive) | 13.1 µM (inactive) | 26.4 µM (inactive) | 29.9 µM (inactive) |
